# In patent publication US20260137662A1, “CD11B AGONISTS FOR TREATMENT OF AUTOIMMUNE DISEASE” (Rush University Medical Center, priority 2022, published 2026):
# Key:
# [1] = tested on: TLR7 mediated pro-inflammatory biomarkers; experiment: Secretion of pro-inflammatory biomarkers from myeloid cells stimulated with imiquimod (ELISA); type: cell-based; details: IMQ (20 ug/mL) and LA1 (20 uM) co-treatment, 4 hours
# Protocol: FIG. 5A illustrates the levels of biomarker IL-1b secretion in myeloid cells after 4 hours of treatment with vehicle DMSO (UT), LA1 (20 uM), Imiquimod (IMQ) (20 ug/mL), or IMQ and LA1 co-treatment. Bars show mean with SD (N=3) (*P<0.05, **P<0.01, ***P<0.001, ***P<0.0001).
# FIG. 5B illustrates the levels of biomarker suPAR secretion in myeloid cells after 4 hours of treatment with vehicle DMSO (UT), LA1 (20 uM), Imiquimod (IMQ) (20 ug/mL), or IMQ and LA1 co-treatment. Bars show mean with SD (N=3) (*P<0.05, **P<0.01, ***P<0.001, ***P<0.0001).
# FIG. 5C illustrates the levels of biomarker IL-6 secretion in myeloid cells after 4 hours of treatment with vehicle DMSO (UT), LA1 (20 uM), Imiquimod (IMQ) (20 ug/mL), or IMQ and LA1 co-treatment. Bars show mean with SD (N=3) (*P<0.05, **P<0.01, ***P<0.001, ***P<0.0001).
# FIG. 5D illustrates the levels of biomarker TNFalpha secretion in myeloid cells after 4 hours of treatment with vehicle DMSO (UT), LA1 (20 uM), Imiquimod (IMQ) (20 ug/mL), or IMQ and LA1 co-treatment.
# FIG. 5E illustrates the levels of biomarker IFN-b secretion in myeloid cells after 4 hours of treatment with vehicle DMSO (UT), LA1 (20 uM), Imiquimod (IMQ) (20 ug/mL), or IMQ and LA1 co-treatment. Bars show mean with SD (N=3) (*P<0.05, **P<0.01, ***P<0.001, ****P<0.0001).
# The concentration of TLR7 mediated pro-inflammatory biomarkers in untreated myeloid cells, myeloid cells treated with LA1, myeloid cells treated with IMQ, and myeloid cells co-treated with IMQ and LA1 was assessed by ELISA.
# TLR signaling pathways = experiment: Relative gene expression in RAW cells treated with Poly(I:C); type: cell-based, murine; details: Poly(I:C) (0.1 ug/mL) and LA1 (20 uM) co-treatment, 4 hours
# Protocol: FIG. 2C illustrates relative gene expression of biomarker uPAR in RAW cells after 4 hours of treatment with Poly(I:C) (0.1 ug/mL), LA1 (20 uM), and Poly(I:C) […] LA1 co-treatment.
# FIG. 2D illustrates relative gene expression biomarker IL-1b in RAW cells after 4 hours of treatment with Poly(I:C) (0.1 ug/mL), LA1 (20 uM), or Poly(I:C) and LA1 co-treatment.
# The effect of LA1 on TLR-stimulation dependent pro-inflammatory pathways was studied by stimulating myeloid cells with different TLR-stimulants (lipopolysaccharide (LPS), Pam2CSK 4, imiquimod (IMQ)) or with phorbol 12-myristate 13-acetate (PMA) and co-treating with LA1. The levels of suPAR (pg/mL) and TNFa (pg/mL) in cell supernatant were measured 4 hours after treatment using ELISA. […] Relative gene expression was also assessed in myeloid cells treated with Poly(I:C), a known toll-like receptor (TLR) agonist, and co-treated with LA1.
# [2] = tested on: IMQ-induced mouse model of lupus; experiment: IMQ-induced mouse model of lupus, LA1 co-treatment i.p.; type: in vivo, wild type C57BL/6 mice; details: IMQ cream 8 weeks
# Protocol: FIG. 8A illustrates an experimental timeline for the measurement of suPAR levels, albumin creatinine ratios (ACR), anti-dsDNA antibody levels, and spleen size in wild type mouse models treated with IMQ, LA1, or IMO and LA1 co-treatment.
# FIG. 8B illustrates levels of biomarker suPAR in the blood and urine of wild type mice (WT), mice treated with IMQ, mice co-treated with IMQ and vehicle DMSO or mice co-treated with IMQ and LA1 (2 mg/kg i.p. daily). Each dot represents a unique sample. Bars show mean +/−SEM (n=5).
# FIG. 8C illustrates the albumin creatinine ratios (ACR) in the blood and urine of wild type mice (WT), mice treated with IMQ, mice co-treated with IMQ and vehicle DMSO or mice co-treated with IMQ and LA1 (2 mg/kg i.p. daily). Each dot represents a unique sample. Bars show mean +/−SEM (n=5).
# FIG. 8D illustrates levels of anti-dsDNA antibodies in the blood and urine of wild type mice (WT), mice treated with IMQ, mice co-treated with IMQ and vehicle DMSO, or mice co-treated with IMQ and LA1 (2 mg/kg i.p. daily). Each dot represents a unique sample. Bars show mean +/−SEM (n=5).
# FIG. 8E illustrates spleen size (mm) and weight (g) of wild type mice (WT), mice treated with IMQ, mice co-treated with IMQ and vehicle DMSO, or mice co-treated with IMQ and LA1. Each dot represents a unique sample. Bars show mean +/−SEM (n=5).
# To investigate efficacy of LA1 as a therapeutic for SLE and autoimmune diseases in vivo, an IMQ-induced mouse model of lupus (Yokogawa et al, 2014) was used. Imiquimod (IMQ), a known TLR7 stimulant, was used to induce disease in wild type mice. Briefly, wild type C57BL/6 mice (WT) were treated topically with IMQ cream (Aldara) over the course of 8 weeks, as shown in the timeline of FIG. 8A, a group was also co-treated intraperitoneally with LA1 or vehicle DMSO. Blood and urine were collected for analysis of inflammatory cytokines and proteinuria over the course of treatment. […] Additionally, spleen size and weight were recorded.
# [3] = co-treated with LA1 2 mg/kg i.p. daily, vs IMQ
smiles,measurement,setting,value
"O=C(O)c1ccc(-c2ccc(/C=C3\SC(=S)N(Cc4ccccc4)C3=O)o2)cc1 [LA1, (Z)-4-(5-((3-benzyl-4-oxo-2-thioxothiazolidin-5-ylidene)methyl)furan-2-yl)benzoic acid]",TLR7-dependent increase in IL-1b level (ELISA),[1],significantly reduced
same,TLR7-dependent increase in IL-6 level (ELISA),[1],significantly reduced
same,TLR7-dependent increase in TNF-a level (ELISA),[1],significantly reduced
same,TLR7-dependent increase in uPAR level (ELISA),[1],significantly reduced
same,relative gene expression of biomarker IL-1b,TLR signaling pathways,significantly reduced
same,relative gene expression of biomarker uPAR,TLR signaling pathways,significantly reduced
same,spleen size,[2]; co-treated with LA1,reduced
same,spleen weight,[2]; co-treated with LA1,reduced
same,albumin creatinine ratios (ACR),[2]; [3],significantly reduced
same,levels of anti-dsDNA antibodies,[2]; [3],significantly reduced
same,levels of suPAR,[2]; [3],significantly reduced
